Laboratory results taken from paper PMC2707616, “Platensimycin Activity against Mycobacterial β-Ketoacyl-ACP Synthases” (PLoS ONE, 2009).
≈ marks a conversion by molar mass, not a printed value. Like-named read-outs stand apart in the source and are kept apart here.

Tests used:
KasB = KasB ref 25; cited from earlier work
KasA = details: cited from earlier work
human FAS-I = tested on: human FAS-I; set-up: method as in earlier work; details: cited from earlier work
S. aureus FabH = tested on: S. aureus FabH; set-up: method as in PMID 17456595; details: S. aureus FabH ref 2; cited from earlier work
M. tuberculosis H37Rv = assay: microbe, parasite or virus in culture; format: cell-based; details: Mycobacterium tuberculosis, solid medium
Cg-FAS-I = assay: FAS-I activity in crude cell free extracts; format: biochemical, C. glutamicum; details: crude cell free extract, standard error in brackets
Protocol: FAS-I extracts from M. smegmatis and C. glutamicum were prepared as described previously. FAS-I experiments were conducted as described using the 40–80% ammonium sulfate fraction. Briefly, platensimycin was titred (0.1–150 µg/ml) into the standard reaction as follows: 100 mM potassium phosphate pH 7.0, 5 mM EDTA, 5 mM dithiothreitol, 300 µM acetyl-CoA, 100 µM NADPH, 100 µM NADH, 1 µM flavin mononucleotide, 500 µM α-cyclodextrin, 20 µM malonyl-CoA, 100,000 cpm of [2-^14C] malonyl-CoA, and 100 µl of the cytosolic enzyme preparation (1 mg of protein) in a total volume of 500 µl. Reactions were performed in triplicate at 37°C for 1 h and terminated by the addition of 500 µl of 20% potassium hydroxide in 50% methanol at 100°C for 30 min. Following acidification with 300 µl of 6 M HCl, the resultant [^14C]-labelled fatty acids were extracted three times with petroleum ether. The organic extracts were pooled, washed once with an equal volume of water, and dried in a scintillation vial prior to scintillation counting using 5 ml of EcoScintA (National Diagnostics, Hull, U.K.).

M. smegmatis mc^2155 [1] = assay: MIC99 by Alamar Blue testing, liquid medium; format: cell-based, Mycobacterium smegmatis; details: Mycolicibacterium smegmatis
M. bovis BCG pVV16 = assay: microbe, parasite or virus in culture; format: cell-based; details: Mycobacterium tuberculosis variant bovis BCG
C. glutamicum = assay: Growth of cultures; format: cell-based; details: data not shown
M. smegmatis mc^2155 [2] = format: cell-based, Mycobacterium smegmatis
Mt-FabH = target: T1, Mt-FabH (Mycobacterium tuberculosis, UniProt P9WNG3); assay: biochemical
T1 construct: made in house
T1 sequence (P9WNG3 whole entry): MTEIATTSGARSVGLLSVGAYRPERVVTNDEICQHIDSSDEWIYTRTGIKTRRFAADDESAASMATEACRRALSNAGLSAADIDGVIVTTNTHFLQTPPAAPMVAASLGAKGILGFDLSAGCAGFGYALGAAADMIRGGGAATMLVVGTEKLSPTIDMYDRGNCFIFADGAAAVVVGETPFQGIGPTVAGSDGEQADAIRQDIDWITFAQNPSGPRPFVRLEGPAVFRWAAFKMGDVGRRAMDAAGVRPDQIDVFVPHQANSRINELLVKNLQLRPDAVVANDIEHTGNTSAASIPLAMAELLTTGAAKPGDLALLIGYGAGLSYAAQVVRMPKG

M. smegmatis pVV16- KasB = assay: microbe, parasite or virus in culture; format: cell-based, Mycobacterium smegmatis
M. bovis BCG = assay: microbe, parasite or virus in culture; format: cell-based
M. bovis BCG pVV16- KasB = assay: microbe, parasite or virus in culture; format: cell-based; details: Mycobacterium tuberculosis variant bovis BCG
[3] = tested on: M. smegmatis pVV16- KasAB; assay: microbe, parasite or virus in culture; format: cell-based, Mycobacterium smegmatis; details: Mycolicibacterium smegmatis, PVV16KASAB
M. smegmatis pVV16- KasA = assay: microbe, parasite or virus in culture; format: cell-based, Mycobacterium smegmatis
M. bovis BCG pVV16- KasA = assay: microbe, parasite or virus in culture; format: cell-based; details: Mycobacterium tuberculosis variant bovis BCG
HeLa = details: mammalian cell toxicity ref 3; cited from earlier work
M. smegmatis = assay: Growth and viable count (CFU) of cultures over 72 h, revival after washing; format: cell-based, Mycobacterium smegmatis
M. smegmatis pVV16 = assay: MIC99 by Alamar Blue testing, vector control strain; format: cell-based, Mycobacterium smegmatis; details: Mycolicibacterium smegmatis
Mt-KasB = target: T2, Mt-KasB (Mycobacterium tuberculosis, UniProt P9WQD7); assay: biochemical
T2 construct: made in house
T2 sequence (P9WQD7 whole entry): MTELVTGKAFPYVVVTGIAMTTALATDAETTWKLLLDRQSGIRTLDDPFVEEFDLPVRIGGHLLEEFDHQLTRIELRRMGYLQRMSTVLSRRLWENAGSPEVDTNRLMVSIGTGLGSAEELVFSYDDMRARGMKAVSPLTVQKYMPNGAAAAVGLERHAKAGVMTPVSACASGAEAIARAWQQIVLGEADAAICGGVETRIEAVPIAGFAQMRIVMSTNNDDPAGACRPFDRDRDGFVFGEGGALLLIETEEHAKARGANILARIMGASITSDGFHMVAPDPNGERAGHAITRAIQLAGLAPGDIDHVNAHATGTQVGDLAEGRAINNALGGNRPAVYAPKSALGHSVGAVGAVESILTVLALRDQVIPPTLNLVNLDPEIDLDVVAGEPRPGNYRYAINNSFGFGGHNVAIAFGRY

Candida albicans = tested on: Candida albicans; set-up: method as in PMID 16710421; details: cited from earlier work
Mt-KasA = target: T3, Mt-KasA (Mycobacterium tuberculosis, UniProt P9WQD9); assay: biochemical
T3 construct: made in house
T3 sequence (P9WQD9 whole entry): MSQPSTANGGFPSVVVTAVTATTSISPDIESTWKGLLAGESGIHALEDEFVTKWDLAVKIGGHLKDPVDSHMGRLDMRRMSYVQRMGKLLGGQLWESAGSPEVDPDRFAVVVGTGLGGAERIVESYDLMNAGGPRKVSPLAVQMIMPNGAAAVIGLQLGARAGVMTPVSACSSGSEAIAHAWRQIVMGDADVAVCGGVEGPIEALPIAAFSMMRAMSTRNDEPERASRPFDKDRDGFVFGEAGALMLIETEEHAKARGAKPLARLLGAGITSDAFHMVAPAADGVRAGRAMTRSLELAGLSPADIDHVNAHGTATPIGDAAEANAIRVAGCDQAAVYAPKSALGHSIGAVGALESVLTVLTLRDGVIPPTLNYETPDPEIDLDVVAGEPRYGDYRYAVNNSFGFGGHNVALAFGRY

rat FAS-I = tested on: rat FAS-I; set-up: method as in earlier work; details: cited from earlier work
M. tuberculosis CDC1551 = assay: microbe, parasite or virus in culture; format: cell-based; details: Mycobacterium tuberculosis; M. tuberculosis CDC1551, solid medium
M. bovis BCGΔ KasB = format: cell-based, Mycobacterium bovis BCG
M. smegmatis pVV16- FabH = assay: microbe, parasite or virus in culture; format: cell-based, Mycobacterium smegmatis; details: Mycolicibacterium smegmatis, PVV16FABH

Q: With `C=C/C(C)=C/[C@@]1(C)SC(=O)C(C)=C1O` [TLM, thiolactomycin] as the compound, how does the IC50 (KasB) read?
A: The IC50 was 90 µM.

Q: And the IC50 (KasA)?
A: Its IC50 is 20 µM.

Q: For `CC12C[C@@]34C=CC(=O)[C@@](C)(CCC(=O)Nc5c(O)ccc(C(=O)O)c5O)C3[C@H](CC1C4)O2` (stereo partly drawn) [platensimycin], which “human FAS-I inhibition in vitro” value (human FAS-I) is on record?
A: Its value is “inhibited”.

Q: What about the IC50 (S. aureus FabH) of the same compound?
A: Its IC50 is 67 µM.

Q: And the MIC99 (M. tuberculosis H37Rv)?
A: The MIC99 was 12 µg/mL (≈ 27.2 µM).

Q: And the IC50 (Cg-FAS-I)?
A: Its IC50 is 6.5 (0.2) µg/ml.

Q: And the MIC99 (M. smegmatis mc^2155 [1])?
A: Its MIC99 is 14 µg/mL (≈ 31.7 µM).

Q: And the MIC99 (M. bovis BCG pVV16)?
A: The MIC99 was greater than 128 µg/mL.

Q: And the “growth of cultures of C. glutamicum” value (C. glutamicum)?
A: The value was “failed to inhibit growth”.

Q: What about the “Biosynthesis of fatty acids and α- and epoxy-mycolic acids” value (M. smegmatis mc^2155 [2]; 20–40 µg/ml, [14C]acetate labelling) of the same compound?
A: Its value is “significantly inhibited”.

Q: What about the “α′-MAMEs level” value (M. smegmatis mc^2155 [2]; lower concentrations, 10–20 µg/ml) of the same compound?
A: The value was “accumulation”.

Q: What about the “synthesis of mycolate containing lipids GMM and TDM” value (M. smegmatis mc^2155 [2]; platensimycin-treated cultures, 20-40 µg/ml) of the same compound?
A: Its value is “reduced”.

Q: And the IC50 (Mt-FabH)?
A: Its IC50 is greater than 340 µM.

Q: And the “increase in the MIC on Mt-KasB overexpression” value (M. smegmatis pVV16- KasB; MIC to 124 µg/ml)?
A: Its value is 9 fold.

Q: And the MIC99 (M. smegmatis pVV16- KasB; Mycolicibacterium smegmatis, PVV16KASB, M. smegmatis pVV16- KasB)?
A: The MIC99 was 124 µg/mL (≈ 281 µM).

Q: What about the MIC99 (M. bovis BCG) of the same compound?
A: Its MIC99 is greater than 128 µg/mL.

Q: And the MIC99 (M. bovis BCG; Mycobacterium tuberculosis variant bovis BCG, read-out: MIC99)?
A: The MIC99 was greater than 128 µg/mL.

Q: What about the MIC99 (M. bovis BCG pVV16- KasB) of the same compound?
A: The MIC99 was greater than 128 µg/mL.

Q: What about the MIC99 [3] of the same compound?
A: Its MIC99 is 126 µg/mL (≈ 285 µM).

Q: What about the “increase in resistance (MIC) on Mt-KasA overexpression” value (M. smegmatis pVV16- KasA; MIC from 14 to 30 µg/ml) of the same compound?
A: Its value is 2 fold.

Q: And the MIC99 (M. smegmatis pVV16- KasA; Mycolicibacterium smegmatis, PVV16KASA, M. smegmatis pVV16- KasA)?
A: The MIC99 was 30 µg/mL (≈ 68 µM).

Q: And the MIC99 (M. bovis BCG pVV16- KasA)?
A: The MIC99 was greater than 128 µg/mL.

Q: And the “IC50 of HeLa MTT” value (HeLa)?
A: Its value is greater than 1000 µg/mL.

Q: And the “decrease in CFU” value (M. smegmatis; 14 µg/ml platensimycin, 72 hours, LB broth)?
A: The value was 2 log.

Q: And the “nature of the antibiotic effect (revival after washing and re-inoculation)” value (M. smegmatis; cells exposed for 72 hours)?
A: Its value is “bacteristatic”.

Q: And the MIC99 (M. smegmatis pVV16)?
A: The MIC99 was 14 µg/mL (≈ 31.7 µM).

Q: And the IC50 (Mt-KasB)?
A: The IC50 was 9.51 µM.

Q: And the IC50 (Mt-KasB; standard error in brackets)?
A: Its IC50 is 9.51 µM.

Q: What about the “antifungal activity against Candida albicans” value (Candida albicans) of the same compound?
A: Its value is greater than 64 µg/mL.

Q: And the IC50 (Mt-KasA)?
A: The IC50 was 4.53 µM.

Q: What about the IC50 (Mt-KasA; standard error in brackets) of the same compound?
A: Its IC50 is 4.53 µM.

Q: And the “rat FAS-I inhibition in vitro” value (rat FAS-I)?
A: Its value is “inhibited”.

Q: What about the MIC99 (M. tuberculosis CDC1551) of the same compound?
A: The MIC99 was 12 µg/mL (≈ 27.2 µM).

Q: What about the MIC99 (M. bovis BCGΔ KasB) of the same compound?
A: The MIC99 was 61 µg/mL (≈ 138 µM).

Q: What about the MIC99 (M. smegmatis pVV16- FabH) of the same compound?
A: Its MIC99 is 16 µg/mL (≈ 36.2 µM).

Q: For `C=C1C[C@@]23C=CC(=O)[C@@](C)(CCC(=O)Nc4c(O)ccc(C(=O)O)c4O)[C@@H]2C[C@@H]1CC3` [platencin], which IC50 (S. aureus FabH) is on record?
A: Its IC50 is 9.17 µM.
